Source: US7332503B2, “Aporphine esters and their use in therapy” (Axon Biochemicals B.V., priority 2000, dated 2008)
Structures can show the parent of a compound that is named as a salt.

Key:
rat [1] = experiment: Transdermal experiment in one single rat (shaved neck); type: in vivo
Description: The test animals used were male albino Wistar rats weighing between 200 and 370 g. Food and water were available to the rats all the time. They were set in a normal 12 hour day night rhythm. Before the operation the animals resided in a larger cage with a group of rats. During the experiments they were alone in a cage with the dimensions 25*25*35 cm. The blood sampling was performed in freely moving animals, which were all conscious. In this way potential behavioral changes from the treatment could be registered. The operation consisted of the application of a cannula in the vena jugularis. After an experiment the rats were given at least 24 hours to recover.
This amount of cream was applied with a spatula on the shaved neck of the rat, weighing about 350 g.
After one hour and 10 minutes, about five droplets of DMSO were smeared on to the rat neck.
In a comparative experiment 7 mg of Apomorphine hydrochloride solid was dissolved in DMSO (70 microliters).

rat [2] = experiment: Dopaminergic activity in rats after s.c. injection in Viscoleo; type: in vivo; conditions: two rats, ca 3.7 mg/kg (corr. to 2 mg/kg ApoxHCl), 3.7 mg/mL in Viscoleo
Description: The maximum volume of an oil solution/suspension to be injected intramuscularly or subcutaneously is 2-4 mL. This is feasible for the preparations of the aporphine derivatives of the present invention. The accumulated daily dose used in apomorphine s.c. therapy in Parkinson's disease is 4-10 times about 1-4 mg (4-40 mg/day). For the animal experiments performed in the pharmacological research, which led to the present invention, ca 2 mg Apomorphine×HCl (or equivalent molar amount of compounds according to Formula I above, as the base or as a suitable salt or ion-pair) was dissolved in 1 mL of an oil (sesame oil, Viscoleo or another approved oil) and the mixture was gently heated (max 50° C.) shaken in a test tube shaker and ultrasonicated for a short time (minutes) until the mixture became a homogeneous solution or suspension. If necessary, the test compound was first dissolved in 50-300 μL DMSO, water, t-BuOH, PEG, benzylbenzoate, or another suitable and approved solvent or mixtures thereof, before adding the oil (see above) to a total volume of 1 mL.
First 2 eq. were added and after a night at room temperature the solvent was evaporated and the residue was redissolved in CH2Cl2 and a sample was taken with a pipette and chromatographed on a pipette filled with Al2O3. Elution was performed with first CH2Cl2 and then with CH2Cl2:EtOH (9:1). […]

[3] = literature, animal models; cited from earlier work
[4] = background statement; cited from earlier work
[5] = about 5 mg in Fenuril cream plus DMSO
[6] = comparative: 2 mg in 20 microliters DMSO on shaved neck

Mono-Butyryl Apomorphine [Example 2]
behaviour the next day at 10:00 a.m. (rat [1]; [5]): still active showing signs of chewing | time at which chewing, sniffing and yawning were still observed (rat [1]; [5]): ~6 h | duration of stereotypy (rat [1]; about 5 mg in Fenuril cream, after DMSO): at least two | time to typical dopaminergic syndrome including locomotor activity (rat [1]; about 5 mg in Fenuril cream, time after DMSO): About 30 minutes | time to intense yawning, sniffing, penile licking and chewing (rat [1]; about 5 mg in Fenuril cream, time after about five droplets of DMSO smeared on neck): about 10 minutes | dopaminergic effects (rat [1]; about 5 mg in about 120 mg Fenuril hand cream on shaved neck, first hour, before DMSO): Dopaminergic effects were seen but they were weak

CCCCCCCCCCCCCCCC(=O)Oc1ccc2c(c1OC(=O)CCCCCCCCCCCCCCC)-c1cccc3c1C(C2)N(C)CC3 (centres unmarked) [di-C16-Apo]
effect (dopaminergic activity) (rat [2]): No effect whatsoever

CN1CCc2cccc3c2[C@H]1Cc1ccc(O)c(O)c1-3 [Apomorphine hydrochloride]
dopaminergic activity after end of stereotypy (rat [1]; [6]): No other signs of dopaminergic activity | duration of intense stereotypy (rat [1]; [6]): about two | time to stereotypy (rat [1]; [6]): about 30 minutes

CN1CCc2cccc3c2C1Cc1ccc(OC(=O)C(C)(C)C)c(OC(=O)C(C)(C)C)c1-3 (centres unmarked) [dipivaloyl ester pro-drug]
activity relative to parent compound apomorphine [3]: much less active than the parent compound

N[C@@H](Cc1ccc(O)c(O)c1)C(=O)O [levodopa]
fraction of drug converted to DA in peripheral tissues [4]: about 95% | fraction of drug that enters the brain [4]: less than 1%

CC(=O)Oc1ccc2c(c1OC(C)=O)-c1cccc3c1C(C2)N(C)CC3 (centres unmarked) [10,11-Di-acetyl-apomorphine]
activity relative to parent compound apomorphine [3]: almost as potent as apomorphine itself
